Measurements published in PubChem BioAssay AID330 (DTP/NCI, 2004).
Several values for one entry are separate records, joined by “and”; a condition that tells them apart may be missing. Equal values may be shown once. Toxic doses and inconclusive results are not listed. Rule for the calls: active = survival T/C of 150% or more; inactive = T/C below 125% in these data.

Test system: P388 leukemia ip, CD2F1 mice, survival T/C
Experiment: NCI In Vivo Anticancer Drug Screen. Data for tumor model P388 Leukemia (intraperitoneal) in CD2F1 (CDF1) mice
Details: endpoint: median survival time, higher = longer survival
Procedure, shortened: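 Mice carrying the transplanted tumor received test compound or vehicle. Survival was recorded in each group, and the value is the treated-group measurement divided by that of the vehicle-treated control group.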

[1] = dose: 50.0 mg/kg/injection, schedule: Q01DX005 (ip), vehicle: saline with Tween-80
[2] = dose: 100.0 mg/kg/injection, schedule: Q01DX005 (ip), vehicle: saline with Tween-80
[3] = dose: 200.0 mg/kg/injection, schedule: Q01DX005 (ip), vehicle: saline with Tween-80
[4] = dose: 1.56 mg/kg/injection, schedule: Q01DX009 (ip), vehicle: saline with Tween-80
[5] = dose: 3.13 mg/kg/injection, schedule: Q01DX009 (ip), vehicle: saline with Tween-80
[6] = dose: 25.0 mg/kg/injection, schedule: Q01DX009 (ip), vehicle: Klucel (hydroxypropylcellulose) (HPC)
[7] = dose: 50.0 mg/kg/injection, schedule: Q01DX009 (ip), vehicle: Klucel (hydroxypropylcellulose) (HPC)
[8] = dose: 100.0 mg/kg/injection, schedule: Q01DX005 (ip), vehicle: Klucel (hydroxypropylcellulose) (HPC)
[9] = dose: 100.0 mg/kg/injection, schedule: Q01DX009 (ip), vehicle: Klucel (hydroxypropylcellulose) (HPC)
[10] = dose: 100.0 mg/kg/injection, schedule: Q01DX009 (ip), vehicle: saline with Tween-80
[11] = dose: 25.0 mg/kg/injection, schedule: Q01DX005 (ip), vehicle: Klucel (hydroxypropylcellulose) (HPC)
[12] = dose: 50.0 mg/kg/injection, schedule: Q01DX005 (ip), vehicle: Klucel (hydroxypropylcellulose) (HPC)

Measured: T/C

O=C1NC2C(CC(O)C(O)C2O)c2cc3c(c(O)c21)OCO3 (stereo not given)
inactive: dose: 0.19 mg/kg/injection, schedule: Q01DX009 (ip), vehicle: saline + alcohol 103 % of control | dose: 0.38 mg/kg/injection, schedule: Q01DX009 (ip), vehicle: saline + alcohol 111 % of control | dose: 0.75 mg/kg/injection, schedule: Q01DX009 (ip), vehicle: saline + alcohol 116 % of control | dose: 1.44 mg/kg/injection, schedule: Q01DX009 (ip), vehicle: saline + alcohol 107 % of control | dose: 1.5 mg/kg/injection, schedule: Q01DX009 (ip), vehicle: saline + alcohol 117 % of control | dose: 2.88 mg/kg/injection, schedule: Q01DX009 (ip), vehicle: saline + alcohol 115 % of control | dose: 5.75 mg/kg/injection, schedule: Q01DX009 (ip), vehicle: saline + alcohol 115 % of control | dose: 11.5 mg/kg/injection, schedule: Q01DX009 (ip), vehicle: saline + alcohol 115 % of control

Cc1nc2c(sc3ccccc3n2C)c2nc3c(sc4ccccc4n3C)c(C)c12
inactive: [1] 92 % of control | [2] 90 % of control | [3] 86 % of control

CCCSc1ncnc2nc(C)[nH]c12
inactive: dose: 0.39 mg/kg/injection, schedule: Q01DX009 (ip), vehicle: saline with Tween-80 95 % of control | dose: 0.78 mg/kg/injection, schedule: Q01DX009 (ip), vehicle: saline with Tween-80 92 % of control | [4] 98 % of control | [5] 94 % of control

O=C(Nc1ccccc1)c1cc(Cl)ccc1O
inactive: dose: 100.0 mg/kg/injection, schedule: Q04DX003 (ip), vehicle: saline with Tween-80 100 % of control | dose: 200.0 mg/kg/injection, schedule: Q04DX003 (ip), vehicle: saline with Tween-80 100 % of control | dose: 400.0 mg/kg/injection, schedule: Q04DX003 (ip), vehicle: saline with Tween-80 100 % of control

NOCc1cccc(C(F)(F)F)c1
inactive: dose: 75.0 mg/kg/injection, schedule: Q01DX009 (ip), vehicle: saline with Tween-80 87 % of control | dose: 150.0 mg/kg/injection, schedule: Q01DX009 (ip), vehicle: saline with Tween-80 91 % of control | dose: 300.0 mg/kg/injection, schedule: Q01DX009 (ip), vehicle: saline with Tween-80 91 % of control

Cc1cc(C)c(C#N)c(OCC2CCCO2)n1 (stereo not given)
inactive: [1] 95 % of control | [2] 95 % of control

CCCC(NC(=O)OCc1ccccc1)C(=O)NC(C)C(=O)O (stereo not given)
inactive: [6] 104 % of control | [7] 105 % of control | [8] 100 % of control | [9] 106 % of control

O=C1C=CC2(C=C1)N=C(c1ccccc1)C=C2c1ccccc1
inactive: [1] 101 % of control | [2] 97 % of control | [3] 93 % of control

O=c1c2cc(O)ccc2sc2c(CO)ccc(NCCN3CCCC3)c12
inactive: dose: 19.25 mg/kg/injection, schedule: Q01DX005 (ip), vehicle: Klucel (hydroxypropylcellulose) (HPC) 101 % of control | dose: 38.5 mg/kg/injection, schedule: Q01DX005 (ip), vehicle: Klucel (hydroxypropylcellulose) (HPC) 100 % of control | dose: 77.0 mg/kg/injection, schedule: Q01DX005 (ip), vehicle: Klucel (hydroxypropylcellulose) (HPC) 106 % of control | dose: 154.0 mg/kg/injection, schedule: Q01DX005 (ip), vehicle: Klucel (hydroxypropylcellulose) (HPC) 109 % of control

COc1ccc(N=C/C=C/c2ccccc2)cc1
inactive: [10] 118 % of control | dose: 200.0 mg/kg/injection, schedule: Q01DX009 (ip), vehicle: saline with Tween-80 118 % of control | dose: 400.0 mg/kg/injection, schedule: Q01DX009 (ip), vehicle: saline with Tween-80 118 % of control

O=c1n(-c2ccccc2)c(=O)n2n1C1CC3c4ccccc4C1C32 (stereo not given)
inactive: [11] 101 % of control | [12] 97 % of control | [8] 94 % of control

O=C(CO)c1ccc([N+](=O)[O-])cc1
inactive: [4] 99 % of control | [5] 101 % of control | dose: 6.25 mg/kg/injection, schedule: Q01DX009 (ip), vehicle: saline with Tween-80 106 % of control | dose: 12.5 mg/kg/injection, schedule: Q01DX009 (ip), vehicle: saline with Tween-80 116 % of control

CC(C)N(C(C)C)P1(=NC(C)(C)C)N(C(C)(C)C)P(=NC(C)(C)C)(N(C(C)C)C(C)C)N1C(C)(C)C (stereo not given)
inactive: dose: 12.5 mg/kg/injection, schedule: Q01DX005 (ip), vehicle: Klucel (hydroxypropylcellulose) (HPC) 107 % of control | [11] 104 % of control | [12] 100 % of control and 102 % of control | [8] 102 % of control

CCCCn1c(C)nc2c(N)cc(C(F)(F)F)cc21
inactive: dose: 3.12 mg/kg/injection, schedule: Q01DX009 (ip), vehicle: Klucel (hydroxypropylcellulose) (HPC) 100 % of control and 92 % of control | dose: 6.25 mg/kg/injection, schedule: Q01DX009 (ip), vehicle: Klucel (hydroxypropylcellulose) (HPC) 105 % of control and 87 % of control | dose: 12.5 mg/kg/injection, schedule: Q01DX009 (ip), vehicle: Klucel (hydroxypropylcellulose) (HPC) 121 % of control and 97 % of control | dose: 25.0 mg/kg/injection, schedule: Q01DX001 (ip), vehicle: Klucel (hydroxypropylcellulose) (HPC) 111 % of control | [6] 107 % of control and 89 % of control and 93 % of control | dose: 50.0 mg/kg/injection, schedule: Q01DX001 (ip), vehicle: Klucel (hydroxypropylcellulose) (HPC) 115 % of control | [7] 101 % of control | dose: 100.0 mg/kg/injection, schedule: Q01DX001 (ip), vehicle: Klucel (hydroxypropylcellulose) (HPC) 115 % of control | [9] 105 % of control | dose: 200.0 mg/kg/injection, schedule: Q01DX001 (ip), vehicle: Klucel (hydroxypropylcellulose) (HPC) 114 % of control | dose: 400.0 mg/kg/injection, schedule: Q01DX001 (ip), vehicle: Klucel (hydroxypropylcellulose) (HPC) 118 % of control

O=S(=O)(/N=C1/c2ccccc2/C(=N/S(=O)(=O)c2ccccc2)C2CC=CCC12)c1ccccc1 (stereo not given)
inactive: dose: 6.25 mg/kg/injection, schedule: Q01DX001 (ip), vehicle: saline with Tween-80 100 % of control | dose: 12.5 mg/kg/injection, schedule: Q01DX001 (ip), vehicle: saline with Tween-80 95 % of control | dose: 25.0 mg/kg/injection, schedule: Q01DX001 (ip), vehicle: saline with Tween-80 100 % of control

COc1cccc(OC)c1OC(=O)Nc1ccccc1F
inactive: dose: 60.0 mg/kg/injection, schedule: Q01DX005 (ip), vehicle: saline with Tween-80 102 % of control | dose: 120.0 mg/kg/injection, schedule: Q01DX005 (ip), vehicle: saline with Tween-80 105 % of control | dose: 240.0 mg/kg/injection, schedule: Q01DX005 (ip), vehicle: saline with Tween-80 102 % of control

OCC(O)C(O)C(O)/C=N\Nc1ccccc1 (stereo not given)
inactive: dose: 50.0 mg/kg/injection, schedule: Q01DX009 (ip), vehicle: saline 100 % of control | dose: 100.0 mg/kg/injection, schedule: Q01DX009 (ip), vehicle: saline 114 % of control

COc1ccc2c([O-])c3[n+](cc2c1OC)CCc1cc2c(cc1-3)OCO2
inactive: dose: 50.0 mg/kg/injection, schedule: Q04DX002 (ip), vehicle: saline with Tween-80 103 % of control | dose: 100.0 mg/kg/injection, schedule: Q04DX002 (ip), vehicle: saline with Tween-80 106 % of control | dose: 200.0 mg/kg/injection, schedule: Q04DX002 (ip), vehicle: saline with Tween-80 102 % of control

CCC(c1ccc(OC)cc1)C(NCC(=O)N/N=C/c1c[nH]c2ccccc12)c1ccc(OC)cc1 (stereo not given)
inactive: dose: 100.0 mg/kg/injection, schedule: Q01DX001 (ip), vehicle: saline with Tween-80 94 % of control | dose: 200.0 mg/kg/injection, schedule: Q01DX001 (ip), vehicle: saline with Tween-80 87 % of control

Nc1ncnc2c1cnn2Cc1ccc(Cl)cc1
inactive: dose: 50.0 mg/kg/injection, schedule: Q01DX009 (ip), vehicle: saline with Tween-80 100 % of control | [10] 100 % of control

C[n+]1cccc(NC(=O)c2ccccc2)c1
inactive: dose: 7.5 mg/kg/injection, schedule: Q01DX005 (ip), vehicle: saline with Tween-80 102 % of control | dose: 15.0 mg/kg/injection, schedule: Q01DX005 (ip), vehicle: saline with Tween-80 99 % of control | dose: 30.0 mg/kg/injection, schedule: Q01DX005 (ip), vehicle: saline with Tween-80 113 % of control

CCC(=O)Nc1cc(C(F)(F)F)cc2[nH]c(C)nc12
inactive: [1] 97 % of control | [2] 99 % of control | [3] 100 % of control
